Experimental data: ChEMBL document CHEMBL4828757, “Further hit optimization of 6-(trifluoromethyl)pyrimidin-2-amine based TLR8 modulators: Synthesis, biological evaluation and structure-activity relationships” (Eur J Med Chem, 2021)
Active and inactive are the calls of the source. No cut-off for these calls is given here.

molecular target: T1, Toll-like receptor 8 (Homo sapiens) (UniProt Q9NR97); assay: Negative modulator activity at human TLR8 expressed in HEK-Blue hTLR8 cells assessed as inhibition of TL8-506 stimulated NF-kappaB activation at 10 uM preincubated with compound for 1 hr followed by TL8-506 stimulation for 24 hrs by SEAP-based colorimetric assay; assay type: cell-based; conditions: filed as modulator, time 25.0 hrs
T1 sequence (whole entry): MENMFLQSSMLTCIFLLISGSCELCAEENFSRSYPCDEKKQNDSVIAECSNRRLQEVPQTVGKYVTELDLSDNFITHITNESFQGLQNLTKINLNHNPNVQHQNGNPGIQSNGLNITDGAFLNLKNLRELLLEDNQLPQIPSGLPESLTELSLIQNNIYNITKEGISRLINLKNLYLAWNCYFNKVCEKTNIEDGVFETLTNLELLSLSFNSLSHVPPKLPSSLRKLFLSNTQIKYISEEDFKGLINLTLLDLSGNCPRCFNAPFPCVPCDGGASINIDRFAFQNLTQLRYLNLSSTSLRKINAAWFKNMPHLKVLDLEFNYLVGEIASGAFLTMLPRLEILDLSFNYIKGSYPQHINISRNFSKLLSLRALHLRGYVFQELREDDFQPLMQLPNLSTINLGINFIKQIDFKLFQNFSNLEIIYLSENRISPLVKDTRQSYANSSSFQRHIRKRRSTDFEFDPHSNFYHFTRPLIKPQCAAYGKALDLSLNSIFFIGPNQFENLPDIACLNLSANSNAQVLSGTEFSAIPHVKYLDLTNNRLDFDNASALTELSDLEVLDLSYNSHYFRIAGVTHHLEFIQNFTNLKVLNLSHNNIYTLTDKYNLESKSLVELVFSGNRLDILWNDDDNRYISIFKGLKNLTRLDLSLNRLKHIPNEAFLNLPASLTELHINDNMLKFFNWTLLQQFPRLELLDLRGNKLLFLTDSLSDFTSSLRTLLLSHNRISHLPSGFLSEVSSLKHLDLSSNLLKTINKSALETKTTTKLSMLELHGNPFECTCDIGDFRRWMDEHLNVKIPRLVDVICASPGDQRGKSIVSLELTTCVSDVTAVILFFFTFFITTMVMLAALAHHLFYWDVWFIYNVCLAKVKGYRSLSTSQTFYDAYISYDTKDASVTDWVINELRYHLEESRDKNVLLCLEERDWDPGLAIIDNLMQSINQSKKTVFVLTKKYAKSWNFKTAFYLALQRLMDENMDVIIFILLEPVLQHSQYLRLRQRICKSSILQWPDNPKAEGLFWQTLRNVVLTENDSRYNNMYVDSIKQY

SMILES	inhibition [%]
FC(F)(F)c1cc(-c2ccccc2)nc(NCc2cccs2)n1	50

molecular target: T1, Toll-like receptor 8 (Homo sapiens); assay: (§1) Negative modulator activity at human TLR8 expressed in HEK-Blue hTLR8 cells assessed as inhibition of TL8-506 stimulated NF-kappaB activation preincubated with compound for 1 hr followed by TL8-506 stimulation for 24 hrs by SEAP-based colorimetric assay; assay type: cell-based; conditions: filed as modulator, time 25.0 hrs

SMILES	inhibition
COc1ccc(-c2cc(C(F)(F)F)nc(NCc3cccs3)n2)cc1	Active
Cc1cc(-c2ccco2)nc(NCc2cccs2)n1	Active
Cc1ccc(-c2cc(C(F)(F)F)nc(NCc3cccs3)n2)cc1	Active

same assay, conditions: time 25.0 hrs

SMILES	inhibition
CC(C)CNc1nc(-c2ccco2)cc(C(F)(F)F)n1	inactive
CC(C)Nc1nc(-c2ccco2)cc(C(F)(F)F)n1	inactive
FC(F)(F)c1cc(C2CCCCC2)nc(NCc2cccs2)n1	inactive
FC(F)(F)c1cc(-c2ccco2)nc(NC2CC2)n1	inactive
FC(F)(F)c1cc(-c2ccco2)nc(NCCN2CCOCC2)n1	inactive
FC(F)(F)c1cc(-c2ccco2)nc(NCC2CC2)n1	inactive
c1coc(-c2ccnc(NCc3cccs3)n2)c1	inactive
CCCNc1nc(-c2ccco2)cc(C(F)(F)F)n1	inactive
CCCCCCNc1nc(-c2ccco2)cc(C(F)(F)F)n1	inactive
CCCCNc1nc(-c2ccco2)cc(C(F)(F)F)n1	inactive
FC(F)(F)c1cc(-c2ccco2)nc(NC2CCCCC2)n1	inactive
CCNc1nc(-c2ccco2)cc(C(F)(F)F)n1	inactive
OCCOCCNc1nc(-c2ccco2)cc(C(F)(F)F)n1	inactive
FC(F)(F)c1cc(-c2ccco2)nc(NC2CCCC2)n1	inactive
FC(F)(F)c1cc(-c2ccco2)ncn1	inactive
C=CCNc1nc(-c2ccco2)cc(C(F)(F)F)n1	inactive
FC(F)(F)c1cc(-c2ccco2)nc(NC2CCC2)n1	inactive
FC(F)(F)c1ccnc(NCc2cccs2)n1	inactive
Cc1cc(C(F)(F)F)nc(NCc2cccs2)n1	inactive
OCCNc1nc(-c2ccco2)cc(C(F)(F)F)n1	inactive

molecular target: T2, Toll-like receptor 8 (Homo sapiens, UniProt Q9NR97); assay: as §1; assay type: cell-based; conditions: hek-blue htlr8
T2 sequence (Q9NR97 whole entry): T1 sequence (whole entry)

SMILES	IC50
OCc1cccc(CNc2nc(-c3ccco3)cc(C(F)(F)F)n2)c1	Not Active
COc1cccc(CNc2nc(-c3ccco3)cc(C(F)(F)F)n2)c1	Not Active
O=C(O)c1ccc(CNc2nc(-c3ccco3)cc(C(F)(F)F)n2)cc1	Not Active
Oc1cccc(CNc2nc(-c3ccccc3)cc(C(F)(F)F)n2)c1	Not Active
CS(=O)(=O)c1nc(-c2ccccc2)cc(C(F)(F)F)n1	Not Active
COc1ccc(CNc2nc(-c3ccco3)cc(C(F)(F)F)n2)cc1	Not Active

same assay, conditions: read-out: IC50

SMILES	IC50 [µM]
FC(F)(F)c1cc(-c2ccco2)nc(NCc2ccccc2)n1	> 100
FC(F)(F)c1cc(-c2ccco2)nc(NCCc2ccccc2)n1	> 100
Oc1ccc(CNc2nc(-c3ccco3)cc(C(F)(F)F)n2)cc1	11
Oc1cccc(CNc2nc(-c3ccco3)cc(C(F)(F)F)n2)c1	23
Oc1cccc(CNc2nc(C3CCCCC3)cc(C(F)(F)F)n2)c1	22
FC(F)(F)c1cc(-c2ccco2)nc(Nc2ccccc2)n1	77

tested on: not listed separately; assay: Cytotoxicity against human PBMC cells assessed as reduction in cell viability at 10 uM incubated for 48 hrs by MTS assay; assay type: cell-based; conditions: not given

SMILES	Activity
CS(=O)(=O)c1nc(-c2ccco2)cc(C(F)(F)F)n1	Toxic

tested on: not listed separately; assay: Cytotoxicity against human PBMC cells assessed as reduction in cell viability up to 50 uM incubated for 48 hrs by MTS assay; assay type: cell-based; conditions: not given

SMILES	Activity
OCc1ccc(CNc2nc(-c3ccco3)cc(C(F)(F)F)n2)cc1	Non-Toxic

molecular target: T1, Toll-like receptor 8 (Homo sapiens); assay: Negative modulator activity at human TLR8 expressed in HEK-Blue hTLR8 cells assessed as inhibition of TL8-506 stimulated NF-kappaB activation at 25 uM preincubated with compound for 1 hr followed by TL8-506 stimulation for 24 hrs by SEAP-based colorimetric assay; assay type: cell-based; conditions: filed as modulator, time 25.0 hrs

SMILES	inhibition [%]
FC(F)(F)c1cc(-c2ccccc2)nc(NCc2cccs2)n1	60
NCc1cccc(CNc2nc(-c3ccco3)cc(C(F)(F)F)n2)c1	50
NCc1ccc(CNc2nc(-c3ccco3)cc(C(F)(F)F)n2)cc1	75

tested on: not listed separately; assay: Cytotoxicity against human HEK-Blue hTLR8 cells assessed as reduction in cell viability at 50 uM by MTT assay; assay type: cell-based; conditions: HEK-Blue hTLR8 cells, read-out: INH

SMILES	cytotoxicity at 50 µM [%]
FC(F)(F)c1cc(-c2ccccc2)nc(NCc2cccs2)n1	40

same assay, conditions: hek-blue htlr8, 50 µM

SMILES	Activity
NCc1cccc(CNc2nc(-c3ccco3)cc(C(F)(F)F)n2)c1	Toxic
NCc1ccc(CNc2nc(-c3ccco3)cc(C(F)(F)F)n2)cc1	Toxic
